# Values of other authors as cited in US20050215535A1, “Sequential SPRM/progestin treatment” (priority 2004, published 2005).
# Columns and labels:
# progesterone receptor = target: T1, progesterone receptor (Oryctolagus cuniculus, UniProt P06186); details: rabbit model; for McPhail score: scale of 0-4
# T1 construct: SPRMs score lower than progesterone in the McPhail bioassay in rabbits; from tissue; host or cells: living rabbit (in vivo; the endometrium as read-out tissue is own knowledge of the McPhail test)
# T1 sequence (P06186 1-930): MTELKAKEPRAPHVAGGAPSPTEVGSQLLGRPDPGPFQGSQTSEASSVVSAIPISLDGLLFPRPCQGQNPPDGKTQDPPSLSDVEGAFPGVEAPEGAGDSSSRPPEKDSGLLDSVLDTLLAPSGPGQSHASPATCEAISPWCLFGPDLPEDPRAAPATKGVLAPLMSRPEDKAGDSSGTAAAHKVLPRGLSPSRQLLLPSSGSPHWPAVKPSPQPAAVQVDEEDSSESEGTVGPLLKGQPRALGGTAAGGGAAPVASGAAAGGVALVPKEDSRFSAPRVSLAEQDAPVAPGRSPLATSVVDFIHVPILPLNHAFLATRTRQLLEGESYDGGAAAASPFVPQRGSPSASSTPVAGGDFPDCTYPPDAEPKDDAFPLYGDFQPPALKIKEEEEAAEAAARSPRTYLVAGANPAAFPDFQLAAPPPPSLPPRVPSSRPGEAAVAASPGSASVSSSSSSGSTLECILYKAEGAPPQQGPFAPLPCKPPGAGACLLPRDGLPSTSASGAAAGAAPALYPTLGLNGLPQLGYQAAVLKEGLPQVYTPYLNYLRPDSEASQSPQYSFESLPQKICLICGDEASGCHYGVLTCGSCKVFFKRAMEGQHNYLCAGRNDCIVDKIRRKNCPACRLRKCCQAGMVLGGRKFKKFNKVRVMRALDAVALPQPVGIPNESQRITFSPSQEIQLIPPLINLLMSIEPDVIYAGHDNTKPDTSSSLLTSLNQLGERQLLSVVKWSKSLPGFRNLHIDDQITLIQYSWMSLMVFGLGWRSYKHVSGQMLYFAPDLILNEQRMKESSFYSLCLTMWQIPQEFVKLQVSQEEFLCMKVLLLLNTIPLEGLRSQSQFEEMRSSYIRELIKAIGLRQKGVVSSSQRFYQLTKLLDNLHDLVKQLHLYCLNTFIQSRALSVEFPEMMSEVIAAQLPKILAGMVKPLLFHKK
agonist activity in the McPhail test (progesterone receptor),McPhail score (progesterone receptor),SMILES,time to withdrawal bleeding (start of spontaneous menstrual cycle) after stopping the SPRM treatment (premenopausal women; all subjects),resumption of menstruation after cessation of treatment (premenopausal women; majority of subjects)
,,COC[C@]1(OC)CC[C@H]2[C@@H]3CCC4=CC(=O)CCC4=C3[C@@H](c3ccc(/C=N/O)cc3)C[C@@]21C [J867],up to 90 days,≤ 30 days
do not show any agonist activity,less than 0.5,"CC#C[C@]1(O)CC[C@H]2[C@@H]3CCC4=CC(=O)CCC4=C3[C@@H](c3ccc(N(C)C)cc3)C[C@@]21C [RU486, mifepristone]",,
do not show any agonist activity,,CN(C)c1ccc([C@H]2C[C@]3(C)[C@@H](CC[C@]3(O)CCCO)[C@@H]3CCC4=CC(=O)CCC4=C32)cc1 [onapristone],,
,4,CC(=O)[C@H]1CC[C@H]2[C@@H]3CCC4=CC(=O)CC[C@]4(C)[C@H]3CC[C@]12C [progesterone],,
